Measured values from patent US6384049B1, “Cancer treatment” (The Procter & Gamble Company, priority 2000, dated 2002).

System: HT29, a colon cancer tumor line
Test: HT29 colon cancer tumor in nude mouse, average tumor weight
Assay type: in vivo
Procedure: Imidazo [4,5-b]pyridine-2-carbamic acid, methyl ester was used to treat HT29, a colon cancer tumor line, in nude mouse. The average tumor weight is reported in mg. The control was the vehicle given twice a week. The imidazo [4,5-b]pyridine-2-carbamic acid, methyl ester was also given on this same schedule. Both compounds were administered by oral gavage.

## COC(=O)Nc1nc2ncccc2[nH]1 [pyridinyl, imidazo [4,5-b]pyridine-2-carbamic acid, methyl ester]
1000 mg/kg p.o. twice a week
  Average Tumor Weight on Day 1: 75.4 mg
  Average Tumor Weight on Day 5: 97.2 mg
  Average Tumor Weight on Day 8: 138.2 mg
  Average Tumor Weight on Day 11: 172.1 mg
  Average Tumor Weight on Day 15: 220.1 mg
  Average Tumor Weight on Day 18: 281.6 mg
  Average Tumor Weight on Day 23: 340.6 mg
  Average Tumor Weight on Day 26: 407.6 mg
  Average Tumor Weight on Day 30: 515.6 mg
1000 mg/kg p.o. twice a week, day 33
  Average Tumor Weight on Day 33: 562 mg
1000 mg/kg p.o. twice a week, day 37
  Average Tumor Weight on Day 37: 828.3 mg
1000 mg/kg p.o. twice a week, day 40
  Average Tumor Weight on Day 40: 533.7 mg
1000 mg/kg p.o. twice a week, day 44
  Average Tumor Weight on Day 44: 714.4 mg
1000 mg/kg p.o. twice a week, day 47
  Average Tumor Weight on Day 47: 656.8 mg
1000 mg/kg p.o. twice a week, day 51
  Average Tumor Weight on Day 51: 763.6 mg
1000 mg/kg p.o. twice a week, day 54
  Average Tumor Weight on Day 54: 793.3 mg
1000 mg/kg p.o. twice a week, day 58
  Average Tumor Weight on Day 58: 919 mg
2500 mg/kg p.o. twice a week
  Average Tumor Weight on Day 1: 76.2 mg
  Average Tumor Weight on Day 5: 62.6 mg
  Average Tumor Weight on Day 8: 115.2 mg
  Average Tumor Weight on Day 11: 101.1 mg
  Average Tumor Weight on Day 15: 196 mg
  Average Tumor Weight on Day 18: 126 mg
  Average Tumor Weight on Day 23: 256 mg
  Average Tumor Weight on Day 26: 171.5 mg
1500 m/kg p.o. twice a week
  Average Tumor Weight on Day 1: 76.6 mg
  Average Tumor Weight on Day 5: 76.1 mg
  Average Tumor Weight on Day 8: 94.4 mg
  Average Tumor Weight on Day 11: 130 mg
  Average Tumor Weight on Day 15: 166.3 mg
  Average Tumor Weight on Day 18: 189.3 mg
  Average Tumor Weight on Day 23: 242.3 mg
  Average Tumor Weight on Day 26: 264 mg
  Average Tumor Weight on Day 30: 405 mg
